Tests used:
[1] = test system: PGE2 production in ionomycin-stimulated STTG cells; assay: Prostaglandin E2 assay (PGE2 EIA) in ionomycin-stimulated STTG cells; type: cell-based, human; conditions: for decrease in PGE2 release / effect on total PGE2 release: FIG. 2
Protocol: FIG. 1. Percent inhibition of prostaglandin E2 (PGE2) production in ionomycin-stimulated STTG cells. PGE2 production was assayed in ionomycin-stimulated STTG cells treated with N-acetyl-L-aspartate (NAA), aspirin (Asp) or dexamethasone (Dex) using a PGE2 enzyme immunoassay described in Example 1. Cells were pre-incubated for 1 hour with NAA, Asp or Dex and then stimulated with 1 μM ionomycin at 37° C., 10% CO2 for 24 hours. Percent inhibition of PGE2 production was measured compared to ionomycin-stimulated STTG cells in the absence of NAA, Asp or Dex. Data represent mean ±SD of three separate experiments. Asterisks indicate a significant difference between untreated, ionomycin-stimulated STTG cells and treated, ionomycin-stimulated STTG cells: *p<0.01. Iono=ionomycin.
FIG. 2. Effect of glutamate receptor antagonists and NAA on PGE2 release in STTG cells stimulated with ionomycin. PGE2 production was assayed in ionomycin-stimulated STTG cells treated with NAA or potential glutamate receptor antagonists (AP-4 and GDE) using a PGE2 enzyme immunoassay described in Example 1. Cells were pre-incubated for 1 hour with NAA or the potential glutamate receptor antagonists and then cells were stimulated with 1 μM ionomycin at 37° C., 10% CO2 for 24 hours. Percent inhibition of PGE2 production was measured compared to ionomycin-stimulated STTG cells in the absence of NAA or potential glutamate receptor antagonists. Data represent mean ±SD of three separate experiments. Asterisks indicate a significant difference between untreated, ionomycin-stimulated STTG cells and treated, ionomycin-stimulated STTG cells: *p<0.01. AP-4=L-2-amino-4-phosphonobutyric acid, and GDE=L-glutamic acid diethyl ester.
Prostaglandin E2 Assay. Human STTG astroglial cells (CRL-1718, American […], Rockville, Mass.) were grown in 75 cm^2 flasks (10% CO2, 37° C.) containing AGM medium (BioWhittaker, Walkersville, Md.) to near confluency (>90%) prior to subculturing with trypsin/EDTA. Cells were plated on a 24-well plate at 50,000 cells/well and incubated for two days to near confluency prior to dosing with inhibitors. N-Acetyl aspartate (NAA, Sigma-Aldrich, St. Louis, Mo.) was dissolved in AGM medium and brought back to a pH of 7.4. Stock solutions of aspirin were dissolved in DMSO and then diluted in culture medium. DMSO concentrations were never >0.5% in the medium bathing the cells. Cells were then dosed with potential prostaglandin E2 (PGE2) inhibitors (NAA, L-2-Amino-4-phosphonobutyric acid [L-AP-4, Sigma-Aldrich, St. Louis, Mo.], L-glutamic acid diethyl ester [GDE, generous gift from Nagaraja K. R. Rao, DMI Synthesis UK Ltd.], aspirin, or dexamethasone). After a 1-hour incubation, the cells were then stimulated with 1 μM ionomycin (Sigma-Aldrich, St. Louis, Mo.) for 24 hours at 37° C. Total volume per well was 1 mL. Then, 0.5 mL of culture medium was removed from each well and immediately assayed for PGE2 using the Prostaglandin E2 enzyme immunoassay (EIA) system (Amersham, Piscataway, N.J.). The remaining medium containing the cells was assayed for cell viability using cell titer reagent (G358A, Promega, Madison, Wis.).

[2] = test system: COX-2 protein in STTG cells; assay: Western blot of total COX-2 protein in STTG cells; type: cell-based, human; conditions: 24 h, 200 μM aspirin, 10 mM NAA (FIG. 3); for effect on total amount of COX-2 protein: STTG cells stimulated with 1 or 2 ng/ml IL-1β; for effect on resting COX-2 protein: unstimulated STTG cells
Protocol: FIG. 3. Representative Western blot for total COX-2 protein in IL-1β-stimulated STTG cells treated with NAA and aspirin. Cells were incubated for 24 hours at 37° C., 10% CO2. Cells were dosed as follows: untreated (lane 1), 200 μM aspirin (lane 2), 10 mM NAA (lane 3), 1 ng/ml IL-1β (lane 4), 2 ng/ml IL-1β (lane 5), 1 ng/ml IL-1β+200 μM aspirin (lane 6), 2 ng/ml IL-1β+200 μM aspirin (lane 7), 1 ng/ml IL-1β+10 mM NAA (lane 8), or 2 ng/ml IL-1β+10 mM NAA (lane 9). Cells were lysed and COX-2 protein was immunoprecipitated overnight (1:500 goat anti-human COX-2) from 400 μg total lysate protein. Immunoprecipitate was loaded on 4-20% tris-glycine gel and transferred overnight onto nitrocellulose membrane. Total COX-2 protein was quantitated using a goat anti-human COX-2 antibody (1:100) and 1:5,000 rabbit anti-goat IgG. The membrane was visualized by chemiluminescence.
Western Blot of COX-2. STTG cells were treated with either NAA or aspirin and immediately stimulated with 1 or 2 ng/ml IL-1β (Sigma-Aldrich, St. Louis, Mo.). After a 24-hour incubation at 37° C. (10% CO2), cells were lysed and total protein was quantitated by BCA (Pierce, Rockford, Ill.). Then, 0.5 mg lysate was immunoprecipitated using 1:500 goat anti-human COX-2 (Santa Cruz Biotechnology, Santa Cruz, Calif.) and Protein AG beads (Pierce, Rockford, Ill.) overnight at 4° C. Samples were loaded on a 4-20% Tris-Glycine gel (Invitrogen, Carlsbad, Calif.) and transferred to a nitrocellulose membrane overnight. The membrane was blocked with 5% Blotto (Santa Cruz Biotechnology, Santa Cruz, Calif.), and COX-2 was detected using 1:100 goat anti-human COX-2 (Santa Cruz Biotechnology, Santa Cruz, Calif.) and 1:5,000 rabbit anti-goat IgG HRP (Santa Cruz Biotechnology, Santa Cruz, Calif.). The membrane was visualized using ECL (Amersham, Piscataway, N.J.) and exposed to X-ray film.

[3] = test system: COX-2 mRNA in STTG astroglial cells; assay: RT-PCR of COX-2 in STTG cells; type: cell-based, human; conditions: 5 and 10 mM, data not shown
Protocol: RT-PCR of COX-2. STTG cells were grown to near confluency on 25 cm^2 cell culture flasks. Cells were dosed with 5 or 10 mM NAA and incubated for 4 or 24 hours at 37° C., 10% CO2. RNA was isolated using Rneasy Mini Kit (Qiagen, Valencia, Calif.) and quantitated using A260/A280 assay. Then, 2 μg of RNA was converted to cDNA using the Omniscript Reverse Transcriptase Kit (Qiagen, Valencia, Calif.). PCR was next performed using HotStarTaq Master Mix (Qiagen, Valencia, Calif.). COX-2 forward ([…] [SEQ ID NO:1]) and reverse primers ([…] [SEQ ID NO:2]) were obtained from Qiagen (Valencia, Calif.) and used at a concentration of 0.5 μM. The PCR thermal cycler program consisted of: 1) 1 denaturation cycle of 15 minutes at 95° C.; 2) 30 cycles of 94° C. (30 sec denaturation), 55° C. (30 sec annealing), and 72° C. (30 sec elongation); and 3) 1 elongation cycle of 10 minutes at 72° C. PCR product was then loaded on a 2% (w/v) agarose gel and stained with ethidium bromide.

[4] = test system: activated NFκB in IL-1β-stimulated STTG cells; assay: NFκB assay (ELISA-based) in IL-1β-stimulated STTG cells; type: cell-based, human; conditions: 1 ng/ml IL-1β, 24 h, FIG. 4
Protocol: FIG. 4. Effect of NAA on NFκB levels in STTG cells stimulated with IL-1. Cells were dosed with NAA and immediately stimulated with 1 ng/ml IL-1 for 24 hours at 37° C., 10% CO2. Cells were lysed, and 10 μg of total protein was assayed for activated NFκB levels using an ELISA-based method. Data represent mean ±SD of three separate experiments. Percentages are percent of inhibition of production of activated NFκB. Asterisks indicate a significant difference between untreated, IL-1β-stimulated STTG cells and NAA-treated, IL-1β-stimulated STTG cells: *p<0.005.
NFκB Assay. STTG cells were treated with NAA and stimulated immediately with 1 ng/ml IL-1β. After a 24-hour incubation, cells were lysed and total protein was quantitated using the BCA™ Protein Assay Kit (Pierce, Rockford, Ill.). Then, 10 μg of protein lysate was assayed for NFκB using the TransAM™ NFκB Family Transcription Factor Assay Kit (Catalog No. 43296, Active Motif, Carlsbad, Calif.).
Effect of NAA on NFκB activation. Activated NFκB was quantitated using a 96-well plate coated with an oligonucleotide that contains an NFκB consensus-binding site. This site specifically binds activated NFκB contained in cell extracts.

[5] = target: T1, COX-2 (Homo sapiens, UniProt P35354); assay: COX-2 activity assay (PGE2 EIA system); type: biochemical; conditions: concentrations up to 20 mM; 0.05 units COX-2, 1 μM arachidonic acid; data not shown
T1 construct: purchased Oxford Biomedical, Oxford, Mich
T1 sequence (P35354 18-604): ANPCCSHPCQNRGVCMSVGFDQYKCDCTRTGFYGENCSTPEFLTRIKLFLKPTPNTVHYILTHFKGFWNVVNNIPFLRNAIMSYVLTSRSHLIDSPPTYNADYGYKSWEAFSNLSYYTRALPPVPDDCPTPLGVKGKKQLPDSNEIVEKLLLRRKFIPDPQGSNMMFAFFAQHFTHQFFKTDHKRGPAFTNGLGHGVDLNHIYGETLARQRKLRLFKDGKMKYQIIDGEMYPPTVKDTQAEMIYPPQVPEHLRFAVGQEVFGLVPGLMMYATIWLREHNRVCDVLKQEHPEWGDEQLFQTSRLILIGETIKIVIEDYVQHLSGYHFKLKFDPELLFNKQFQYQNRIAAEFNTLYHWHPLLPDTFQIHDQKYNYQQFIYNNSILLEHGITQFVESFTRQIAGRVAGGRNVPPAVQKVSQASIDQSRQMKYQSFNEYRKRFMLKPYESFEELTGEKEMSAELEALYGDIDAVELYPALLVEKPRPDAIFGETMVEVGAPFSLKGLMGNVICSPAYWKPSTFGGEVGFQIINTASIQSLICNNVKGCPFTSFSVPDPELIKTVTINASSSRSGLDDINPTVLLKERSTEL
Protocol: COX-2 Activity Assay. Modifying the method of Ouellet and co-workers (Proc. Natl. Acad. Sci. USA, 98:14583-14588 (2001)), COX-2 activity was determined using the PGE2 EIA system. Briefly, COX-2 (Oxford Biomedical, Oxford, Mich.) was incubated at 37° C. for 5 minutes with arachidonic acid (AA), 500 μM phenol, and 1 μM hematin in a 100 mM phosphate buffer (pH 6.5). The reaction was stopped with a solution containing dH2O/MeOH/1 M citric acid (30:4:1). After optimization of COX-2 and AA, 0.05 units of COX-2 per incubation and 1 μM of AA were determined to be optimal. Varying concentrations of NAA and aspirin (pH 6.5) were pre-incubated with COX-2, hematin, and phenol for 15 minutes at 37° C. prior to AA addition. The reaction was stopped after 5-minute incubation with AA. PGE2 levels were determined using PGE2 EIA system as described.
Effect of NAA on COX-2 activity and mRNA. To determine if NAA was inhibiting the cyclooxygenase enzyme directly, a COX-2 activity assay was developed using the PGE2 EIA system. After optimizing for COX-2 and arachidonic acid (AA), a concentration of 0.05 units/incubation of COX-2 and 1 μM of AA was determined to be optimal.

[6] = 5 mM, ionomycin-stimulated STTG cells
[7] = 10 mM, ionomycin-stimulated STTG cells
[8] = ionomycin-stimulated STTG cells, result in words

SMILES | decrease in PGE2 release [1, 6] [%] | decrease in PGE2 release [1, 7] [%] | effect on total PGE2 release [1, 8] | effect on total amount of COX-2 protein [2] | effect on resting COX-2 protein [2] | further results
CCOC(=O)CC[C@H](N)C(=O)OCC [GDE, L-glutamic acid diethyl ester, reference compound] | 40 | 60 | did decrease | – | – | –
CC(=O)Oc1ccccc1C(=O)O [aspirin, reference compound] | – | – | – | decreased | decreasing effect | inhibition of cyclooxygenases as evidenced by lack of PGE2 production ([1]; ionomycin-stimulated STTG cells, FIG. 1, result in words): complete inhibition
CC(=O)N[C@@H](CC(=O)O)C(=O)O [NAA, N-acetyl-L-aspartic acid] | 60 | 90 | – | decreased | no effect | effect on total COX-2 mRNA [3]: did not decrease; decrease in NFκB production (activated NFκB) ([4]; 10 mM): 17.5%; decrease in NFκB production (activated NFκB) ([4]; 20 mM): 40%; effect on COX-2 activity [5]: no effect; decrease in PGE2 production ([1]; 5 mM, 1 h pre-incubation, 1 μM ionomycin 24 h, STTG cells, FIG. 1): 56%; decrease in PGE2 production ([1]; 10 mM, 1 h pre-incubation, 1 μM ionomycin 24 h, STTG cells, FIG. 1): 76%; inhibition at 20000 µM ([1]; Homo sapiens, 20 mM, 1 h pre-incubation, 1 μM ionomycin 24 h, STTG cells, FIG. 1, read-out: decrease in PGE2 production (inhibition)): > 95%
N[C@@H](CCP(=O)(O)O)C(=O)O [L-AP-4, L-2-amino-4-phosphonobutyric acid, reference compound] | – | – | did decrease | – | – | –

Source: patent US20080167376A1, “Methods and products which utilize N-acyl-L-aspartic acid” (DMI BIOSCIENCES, INC., priority 2003, published 2008)
